Structures are written as SMILES.

JAK1, sequence (P23458 875-1153): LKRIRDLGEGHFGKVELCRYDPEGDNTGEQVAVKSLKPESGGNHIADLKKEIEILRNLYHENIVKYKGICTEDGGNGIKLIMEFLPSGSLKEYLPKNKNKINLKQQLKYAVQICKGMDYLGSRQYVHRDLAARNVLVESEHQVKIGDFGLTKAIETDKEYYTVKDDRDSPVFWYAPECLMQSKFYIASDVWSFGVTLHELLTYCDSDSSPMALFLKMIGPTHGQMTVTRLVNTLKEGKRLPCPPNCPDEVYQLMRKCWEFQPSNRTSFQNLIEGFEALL

This test has as its target JAK1 (Homo sapiens (Human), UniProt P23458). Nature of the test: Jak biochemical HTRF assay, JAK1. The settings on record: recombinant purified GST-tagged catalytic domain; HTRF format; [ATP] 31.8 μM. The text has this: Jak Biochemical HTRF Assay Protocol
Subsequent reagent additions employed an Agilent Bravo.
(Time-resolved FRET reads energy transfer from a long-lived donor to a nearby acceptor.)
In the case of `N#C[C@@H]1CN(Cc2cocn2)CC[C@H]1n1cc(C(N)=O)c(Nc2ccc(F)cc2)n1` (racemic) [Example 6-25, 1-[(3R,4R and 3S,4S)-3-cyano-1-(1,3-oxazol-4-ylmethyl)piperidin-4-yl]-3-[(4-fluorophenyl)amino]-1H-pyrazole-4-carboxamide], the IC50 came out at 6 nM.

As to `CCOC(=O)COC(=O)N1CC[C@H](n2cc(C(N)=O)c(Nc3ccc(F)cc3)n2)[C@H](C#N)C1` (racemic) [Example 5-59, 2-ethoxy-2-oxoethyl (3R,4S and 3S,4R)-4-{4-carbamoyl-3-[(4-fluorophenyl)amino]-1H-pyrazol-1-yl}-3-cyanopiperidine-1-carboxylate], the 50% inhibitory concentration (IC50) amounted to 323 nM.

Regarding `N#C[C@@H]1CN(C(=O)OC2CCOC2)CC[C@H]1n1cc(C(N)=O)c(Nc2ccc(F)cc2)n1` (mixture of isomers) [Example 5-25, tetrahydrofuran-3-yl (3R,4R and 3S,4S)-4-{4-carbamoyl-3-[(4-fluorophenyl)amino]-1H-pyrazol-1-yl}-3-cyanopiperidine-1-carboxylate], the 50% inhibitory concentration (IC50) came out at 12 nM.

`N#C[C@H]1CCOC[C@@H]1n1cc(C(N)=O)c(Nc2cnc3cc(Cl)ccc3c2)n1` (single isomer, unassigned) [Example 9-22, 3-[(7-chloroquinolin-3-yl)amino]-1-[(3R,4S or 3S,4R)-4-cyanotetrahydro-2H-pyran-3-yl]-1H-pyrazole-4-carboxamide]: the IC50 is 0.5 nM.

For `N#C[C@@H]1CN(C(=O)OCC(F)F)CC[C@@H]1n1cc(C(N)=O)c(Nc2ccc(F)cc2)n1` (racemic) [Example 5-65, 2,2-difluoroethyl (3R,4S and 3S,4R)-4-{4-carbamoyl-3-[(4-fluorophenyl)amino]-1H-pyrazol-1-yl}-3-cyanopiperidine-1-carboxylate], the half-maximal inhibitory concentration (IC50) is 83 nM.

As for `N#C[C@@H]1CCN(C(=O)OCC(F)(F)F)CC1n1cc(C(N)=O)c(Nc2ccc(F)cc2)n1` (mixture of isomers) [Example 5-78, 2,2,2-trifluoroethyl (3S,4R and 3R,4S)-3-{4-carbamoyl-3-[(4-fluorophenyl)amino]-1H-pyrazol-1-yl}-4-cyanopiperidine-1-carboxylate], the IC50 was found to be 4 nM.

On to `COC1CC(CN2CC[C@@H](n3cc(C(N)=O)c(Nc4ccc(F)cc4)n3)[C@H](C#N)C2)C1` (mixture of isomers) [Example 6-30, 1-{(3R,4R and 3S,4S)-3-cyano-1-[(3-methoxycyclobutyl)methyl]piperidin-4-yl}-3-[(4-fluorophenyl)amino]-1H-pyrazole-4-carboxamide], for which the IC50 was 16 nM.

Regarding `N#C[C@@H]1CN(C(=O)OCCN2CCOCC2)CC[C@H]1n1cc(C(N)=O)c(Nc2ccc(F)cc2)n1` (racemic) [Example 5-4, 2-morpholin-4-ylethyl (3R,4R and 3S,4S)-4-{4-carbamoyl-3-[(4-fluorophenyl)amino]-1H-pyrazol-1-yl}-3-cyanopiperidine-1-carboxylate], the IC50 is 29 nM.

For the molecule `N#C[C@@H]1CN(C(=O)OC2CCCC2)CC[C@H]1n1cc(C(N)=O)c(Nc2ccc(F)cc2)n1` (racemic) [Example 5-11, cyclopentyl (3R,4R and 3S,4S)-4-{4-carbamoyl-3-[(4-fluorophenyl)amino]-1H-pyrazol-1-yl}-3-cyanopiperidine-1-carboxylate], the IC50 is 29 nM.

`CC(C)(C#N)COC(=O)N1CC[C@@H](n2cc(C(N)=O)c(Nc3ccc(F)cc3)n2)[C@H](C#N)C1` (racemic) [Example 5-6, 2-cyano-2-methylpropyl (3R,4R and 3S,4S)-4-{4-carbamoyl-3-[(4-fluorophenyl)amino]-1H-pyrazol-1-yl}-3-cyanopiperidine-1-carboxylate]: the IC50 came to 15 nM.

As to `COC(C)(C)c1ccc(Nc2nn([C@H]3COCC[C@@H]3C#N)cc2C(N)=O)cc1` (single isomer, unassigned) [Example 9-23, 1-[(3R,4S or 3S,4R)-4-cyanotetrahydro-2H-pyran-3-yl]-3-{[4-(1-methoxy-1-methylethyl)phenyl]amino}-1H-pyrazole-4-carboxamide], the IC50 is 3 nM.

Turning to `CC(C)(C)COC(=O)N1CC[C@@H](n2cc(C(N)=O)c(Nc3ccc(F)cc3)n2)[C@H](C#N)C1` (racemic) [Example 5-18, 2,2-dimethylpropyl (3R,4R and 3S,4S)-4-{4-carbamoyl-3-[(4-fluorophenyl)amino]-1H-pyrazol-1-yl}-3-cyanopiperidine-1-carboxylatc], the half-inhibitory concentration (IC50) is 132 nM.

Turning to `N#C[C@@H]1CN(C(=O)OCC(F)(F)F)CC[C@H]1n1cc(C(N)=O)c(Nc2ccc(F)cc2)n1` (racemic) [Example 5-28, 2,2,2-trifluoroethyl (3R,4R and 3S,4S)-4-{4-carbamoyl-3-[(4-fluorophenyl)amino]-1H-pyrazol-1-yl}-3-cyanopiperidine-1-carboxylate], the 50% inhibitory concentration (IC50) is 10 nM.

As for `N#C[C@H]1CCOC[C@@H]1n1cc(C(N)=O)c(Nc2ccccc2)n1` (single isomer, unassigned) [Example 9-37, 1-[(3S,4R or 3R,4S)-4-cyanotetrahydro-2H-pyran-3-yl]-3-(phenylamino)-1H-pyrazole-4-carboxamide], the IC50 turned out to be 10 nM.

Turning to `N#C[C@H]1CS(=O)(=O)CC1n1cc(C(N)=O)c(Nc2ccnc(F)c2)n1` (mixture of isomers) [Example 8-8, 1-((3S,4S and 3R,4R)-4-cyano-1,1-dioxidotetrahydrothiophen-3-yl)-3-((2-fluoropyridin-4-yl)amino)-1H-pyrazole-4-carboxamide], the IC50 was found to be 5 nM.

For the molecule `CC(C)(COC(=O)N1CC[C@H](n2cc(C(N)=O)c(Nc3ccc(F)cc3)n2)[C@H](C#N)C1)n1cccn1` (racemic) [Example 5-53, 2-methyl-2-(1H-pyrazol-1-yl)propyl (3R,4S and 3S,4R)-4-{4-carbamoyl-3-[(4-fluorophenyl)amino]-1H-pyrazol-1-yl}-3-cyanopiperidine-1-carboxylate], the half-inhibitory concentration (IC50) came out at 445 nM.

Turning to `Cc1ncc(CN2CC[C@@H](C#N)[C@H](n3cc(C(N)=O)c(Nc4ccc(F)cc4)n3)C2)s1` (racemic) [Example 6-18, 1-{(3S,4R and 3R,4S)-4-cyano-1-[(2-methyl-1,3-thiazol-5-yl)methyl]piperidin-3-yl}-3-[(4-fluorophenyl)amino]-1H-pyrdzole-4-carboxamide], the IC50 came out at 1 nM.

Turning to `N#CCC1(COC(=O)N2CC[C@H](n3cc(C(N)=O)c(Nc4ccc(F)cc4)n3)[C@H](C#N)C2)CC1` (racemic) [Example 5-64, [1-(cyanomethyl)cyclopropyl]methyl (3R,4S and 3S,4R)-4-{4-carbamoyl-3-[(4-fluorophenyl)amino]-1H-pyrazol-1-yl}-3-cyanopiperidine-1-carboxylate], the IC50 is 440 nM.

`N#C[C@@H]1CCOC[C@H]1n1cc(C(N)=O)c(Nc2ccc(Cl)c(F)c2)n1` (single isomer, unassigned) [Example 9-13, 3-[(4-chloro-3-fluorophenyl)amino]-1-[(3S,4R or 3R,4S)-4-cyanotetrahydro-2H-pyran-3-yl]-1H-pyrazole-4-carboxamide]: the IC50 was determined as 0.2 nM.

Take `N#C[C@@H]1CN(C(=O)OCC(F)F)CC[C@H]1n1cc(C(N)=O)c(Nc2ccc(F)cc2)n1` (racemic) [Example 5-16, 2,2-difluoroethyl (3R,4R and 3S,4S)-4-{4-carbamoyl-3-[(4-fluorophenyl)amino]-1H-pyrazol-1-yl}-3-cyanopiperidine-1-carboxylate]: the IC50 worked out at 8 nM.

As for `N#C[C@H]1CCOC[C@@H]1n1cc(C(N)=O)c(Nc2ccc(Cl)c(Cl)c2)n1` (single isomer, unassigned) [Example 9-10, 1-[(3R,4S or 3S,4R)-4-cyanotetrahydro-2H-pyran-3-yl]-3-[(3,4-dichlorophenyl)amino]-1H-pyrazole-4-carboxamide], the IC50 was 26 nM.

As to `N#C[C@@H]1CCOC[C@H]1n1cc(C(N)=O)c(Nc2ccc(Cl)c(Cl)c2)n1` (single isomer, unassigned) [Example 9-11, 1-[(3S,4R or 3R,4S)-4-cyanotetrahydro-2H-pyran-3-yl]-3-[(3,4-dichlorophenyl)amino]-1H-pyrazole-4-carboxamide], the IC50 amounted to 0.4 nM.

As for `CCOC(=O)N1CC[C@H](n2cc(C(N)=O)c(Nc3ccc(F)cc3)n2)[C@H](C#N)C1` (racemic) [Example 5-44, ethyl (3R,4S and 3S,4R)-4-{4-carbamoyl-3-[(4-fluorophenyl)amino]-1H-pyrazol-1-yl}-3-cyanopiperidine-1-carboxylate], the half-maximal inhibitory concentration (IC50) turned out to be 200 nM.

For the molecule `N#C[C@@H]1CN(CCC2CCOCC2)CC[C@H]1n1cc(C(N)=O)c(Nc2ccc(F)cc2)n1` (racemic) [Example 6-31, 1-{(3R,4R and 3S,4S)-3-cyano-1-[2-(tetrahydro-2H-pyran-4-yl)ethyl]piperidin-4-yl}-3-[(4-fluorophenyl)amino]-1H-pyrazole-4-carboxamide], the IC50 turned out to be 23 nM.

With `N#C[C@@H]1CN(C(=O)OCC(F)(F)F)CC[C@@H]1n1cc(C(N)=O)c(Nc2ccc(F)cc2)n1` (racemic) [Example 5-66, 2,2,2-trifluoroethyl (3R,4S and 3S,4R)-4-{4-carbamoyl-3-[(4-fluorophenyl)amino]-1H-pyrazol-1-yl}-3-cyanopiperidine-1-carboxylate], the IC50 stood at 84 nM.

`N#C[C@@H]1CCOC[C@H]1n1cc(C(N)=O)c(Nc2ccccc2)n1` (single isomer, unassigned) [Example 9-38, 1-[(3R,4S or 3S,4R)-4-cyanotetrahydro-2H-pyran-3-yl]-3-(phenylamino)-1H-pyrazole-4-carboxamide]: the 50% inhibitory concentration (IC50) worked out at 0.3 nM.

For `Cn1ccc(CN2CC[C@@H](n3cc(C(N)=O)c(Nc4ccc(F)cc4)n3)[C@H](C#N)C2)n1` (racemic) [Example 6-26, 1-{(3R,4R and 3S,4S)-3-cyano-1-[(1-methyl-1H-pyrazol-3-yl)methyl]piperidin-4-yl}-3-[(4-fluorophenyl)amino]-1H-pyrazole-4-carboxamide], the 50% inhibitory concentration (IC50) amounted to 17 nM.

With `N#C[C@@H]1CCN(Cc2cncs2)C[C@H]1n1cc(C(N)=O)c(Nc2ccc(F)cc2)n1` (racemic) [Example 7-1, 1-[(3S,4R and 3R,4S)-4-Cyano-1-(1,3-thiazol-5-ylmethyl)piperidin-3-yl]-3-[(4-fluorophenyl)amino]-1H-pyrazole-4-carboxamide], the IC50 amounted to 0.5 nM.

In general, IC50 refers to the point on the concentration scale where inhibition reaches its midpoint.

For the origin of these results see patent US9394282B2, “Pyrazole carboxamides as Janus kinase inhibitors” (Merck Sharp & Dohme Corp., priority 2011, dated 2016).
